These compounds were tested against Carbonic anhydrase 9 (Homo sapiens, UniProt Q16790) (assay: Inhibition of human carbonic anhydrase-9 incubated for 10 mins prior to testing by stopped-flow CO2 hydrase assay).

With `CC(=O)N1N=C(c2ccccc2)CC1c1c(C)nn(-c2ccc(S(N)(=O)=O)cc2)c1Cl` (configuration not stated) as the compound, how does the Ki read?
Its Ki is 63.1 nM.

With `Cc1nn(-c2ccc(S(N)(=O)=O)cc2)c(Cl)c1C1CC(c2ccc(F)cc2)=NN1c1ccc(S(N)(=O)=O)cc1` (configuration not stated) as the compound, how does the Ki read?
The Ki was 44.7 nM.

`COc1ccc(C2=NN(c3ccc(S(N)(=O)=O)cc3)C(c3c(C)nn(-c4ccc(S(N)(=O)=O)cc4)c3Cl)C2)cc1` (configuration not stated) was tested. Which Ki did it give?
Its Ki is 52.4 nM.

For `CC(=O)N1N=C(c2ccc(C)cc2)CC1c1c(C)nn(-c2ccc(S(N)(=O)=O)cc2)c1Cl` (configuration not stated), which Ki is on record?
The Ki was 67.1 nM.

`CC(=O)N1N=C(c2ccc(Cl)cc2)CC1c1c(C)nn(-c2ccc(S(N)(=O)=O)cc2)c1Cl` (configuration not stated) was tested. Which Ki did it give?
Its Ki is 30.8 nM.

For `CC(=O)N1N=C(c2ccc(Br)cc2)CC1c1c(C)nn(-c2ccc(S(N)(=O)=O)cc2)c1Cl` (configuration not stated), which Ki is on record?
The Ki was 67.2 nM.

With `CC(=O)N1N=C(c2ccc(F)cc2)CC1c1c(C)nn(-c2ccc(S(N)(=O)=O)cc2)c1Cl` (configuration not stated) as the compound, how does the Ki read?
The Ki was 6.9 nM.

For `Cc1ccc(C2=NN(c3ccc(S(N)(=O)=O)cc3)C(c3c(C)nn(-c4ccc(S(N)(=O)=O)cc4)c3Cl)C2)cc1` (configuration not stated), which Ki is on record?
Its Ki is 70.7 nM.

With `Cc1nn(-c2ccc(S(N)(=O)=O)cc2)c(Cl)c1C1CC(c2ccc(Br)cc2)=NN1c1ccc(S(N)(=O)=O)cc1` (configuration not stated) as the compound, how does the Ki read?
The Ki was 44.4 nM.

`Cc1nn(-c2ccc(S(N)(=O)=O)cc2)c(Cl)c1C1CC(c2ccccc2)=NN1c1ccc(S(N)(=O)=O)cc1` (configuration not stated) was tested. Which Ki did it give?
The Ki was 71.6 nM.

For `Cc1nn(-c2ccc(S(N)(=O)=O)cc2)c(Cl)c1C1CC(c2ccc(Cl)cc2)=NN1c1ccc(S(N)(=O)=O)cc1` (configuration not stated), which Ki is on record?
Its Ki is 32.9 nM.

With `COc1ccc(C2=NN(C(C)=O)C(c3c(C)nn(-c4ccc(S(N)(=O)=O)cc4)c3Cl)C2)cc1` (configuration not stated) as the compound, how does the Ki read?
The Ki was 56.9 nM.

Source: ChEMBL document CHEMBL3600306, “Sulfonamide bearing pyrazolylpyrazolines as potent inhibitors of carbonic anhydrase isoforms I, II, IX and XII” (Bioorg Med Chem Lett, 2015)
